One data set relates to MCF-7. Put plainly: Two-dose antiproliferative screening, SRB assay, MCF-7. It counts as cell-based. The note with it: Homo sapiens, MCF7, 72 h, triplicates; for inhibition at 1 µM: read-out: Growth Inhibition (%) MCF-7 1 μM Average; for inhibition at 10 µM: read-out: Growth Inhibition (%) MCF-7 10 μM Average. The procedure:
(§1) MCF-7(breast adenocarcinoma), PC-3 (prostate cancer) and COLO-205 (colorectal cancer) were obtained from Nawah Scientific inc., (Mokatam, Cairo, Egypt). Cells were maintained in Dulbecco’s Modified Eagle’s media (DMEM media) supplemented with […] of streptomycin, 100 units/mL of penicillin and 10% of heat-inactivated fetal bovine serum in humidified, 5% (v/v) CO2 atmosphere at 37 °C.
(§2) Cell viability was assessed by the sulforhodamine B (SRB) assay. Aliquots of cell suspension (5 × 10^3 cells, 100 μL) were transferred into 96 well plates and incubated in complete media for 24 h. Cells were treated with another aliquot media (100 μL) containing compounds 3a–f, 4a–f, 6a–f, 7a–f, 9a–b at concentrations of 1 and 10 μM). After 72 h of drug exposure, cells were fixed by replacing media with trichloroacetic acid (TCA, 10%, 150 μL) and incubated at 4 °C for 1 h. The TCA solution was removed, and the cells were washed five times with distilled water. Aliquots of SRB solution (0.4%w/v, 70 μL) were added and incubated in a dark place at room temperature for 10 min. Plates were washed three times with 1% acetic acid and allowed to air dry overnight. Then, a solution of TRIS base and TRIS HCl (TRIS buffer, 10 mM, 150 μL) was added to dissolve protein bound SRB stain. The absorbance was measured at 540 nm using BMGLABTECH®–FLUOstar omega micro-plate reader (Ortenberg, Germany).
In general terms: The SRB assay estimates cell density from bound dye.

A further data set deals with PC-3. In words: Two-dose antiproliferative screening, SRB assay, PC-3. Type of data set: cell-based. To be noted: triplicates; for inhibition at 1 µM / inhibition at 10 µM: Homo sapiens, PC-3, 72 h; for inhibition at 1 µM: read-out: Growth Inhibition (%) PC-3 1 μM Average; for inhibition at 10 µM: read-out: Growth Inhibition (%) PC-3 10 μM Average. The procedure: as §1, §2

Data set [1] relates to COLO-205. In words: Two-dose antiproliferative screening, SRB assay, COLO-205. It counts as cell-based, human. To be noted: triplicates; for Growth Inhibition (%) COLO-205 10 μM Average: 72 h; for inhibition at 1 µM / inhibition at 10 µM: Homo sapiens, COLO 205, 72 h; for inhibition at 1 µM: read-out: Growth Inhibition (%) COLO-205 1 μM Average; for inhibition at 10 µM: read-out: Growth Inhibition (%) COLO-205 10 μM Average. As for the experimental part:
as §1, §2

The subject of data set [2] is COLO-205. Put plainly: IC50 against COLO-205, SRB assay. Type of data set: cell-based. To be noted: Homo sapiens, 0.001–100 μM. As for the experimental part: as §2
The same procedures used to screen two-dose anticancer activities were applied in determining IC50 values against COLO-205 using SRB assay. Cells were maintained at Roswell Park Memorial Institute media (RPMI media). The test was performed using 0.001–100 μM of compounds 4a (IC261), 4b, 4d, 4e, 6e and 6f. IC50 values were calculated using the equation for Boltzman sigmoidal concentration–response curve using the nonlinear regression fitting models by GraphPad, Prism version 5 (GraphPad Software Inc., La Jolla, CA, USA).

In data set [3] the target is CK1. In words: Casein Kinase 1 (CK1) 33P-ATP assay. It counts as biochemical. As for the experimental part: The active CK1, kinase assay buffer, substrate solution and kinase dilution buffer were thawed on ice (^33P-ATP assay Cocktail). In a precooled microcentrifuge tube, 10 μL of kinase solution, 5 μL of substrate solution and 5 μL of cold water (4 °C) were added, then a blank control was set up. Each reaction was initiated by adding 5 μL of ^33P-ATP assay cocktail then incubated for 15 min in a water bath (30 °C), then 20 μL of the reaction mixture were spotted onto an individually precut strip of phosphocellulose P81 paper and allowed to air dry followed by washing using 1% H2SO4 with constant gentle stirring. A radioactive control was set up then 5 μL of γ-^33P-ATP assay cocktail was spotted on P81 paper, the sample was allowed to air dry for 2 min then the radioactivity count was recorded.

The target of a further data set is T1, EGFR (Homo sapiens, UniProt P00533).
T1 construct: enough purified recombinant EGFR enzyme, EGFR substrate, ATP, and kinase assay buffer; purchased Sigma Aldrich
T1 sequence (P00533 25-1210): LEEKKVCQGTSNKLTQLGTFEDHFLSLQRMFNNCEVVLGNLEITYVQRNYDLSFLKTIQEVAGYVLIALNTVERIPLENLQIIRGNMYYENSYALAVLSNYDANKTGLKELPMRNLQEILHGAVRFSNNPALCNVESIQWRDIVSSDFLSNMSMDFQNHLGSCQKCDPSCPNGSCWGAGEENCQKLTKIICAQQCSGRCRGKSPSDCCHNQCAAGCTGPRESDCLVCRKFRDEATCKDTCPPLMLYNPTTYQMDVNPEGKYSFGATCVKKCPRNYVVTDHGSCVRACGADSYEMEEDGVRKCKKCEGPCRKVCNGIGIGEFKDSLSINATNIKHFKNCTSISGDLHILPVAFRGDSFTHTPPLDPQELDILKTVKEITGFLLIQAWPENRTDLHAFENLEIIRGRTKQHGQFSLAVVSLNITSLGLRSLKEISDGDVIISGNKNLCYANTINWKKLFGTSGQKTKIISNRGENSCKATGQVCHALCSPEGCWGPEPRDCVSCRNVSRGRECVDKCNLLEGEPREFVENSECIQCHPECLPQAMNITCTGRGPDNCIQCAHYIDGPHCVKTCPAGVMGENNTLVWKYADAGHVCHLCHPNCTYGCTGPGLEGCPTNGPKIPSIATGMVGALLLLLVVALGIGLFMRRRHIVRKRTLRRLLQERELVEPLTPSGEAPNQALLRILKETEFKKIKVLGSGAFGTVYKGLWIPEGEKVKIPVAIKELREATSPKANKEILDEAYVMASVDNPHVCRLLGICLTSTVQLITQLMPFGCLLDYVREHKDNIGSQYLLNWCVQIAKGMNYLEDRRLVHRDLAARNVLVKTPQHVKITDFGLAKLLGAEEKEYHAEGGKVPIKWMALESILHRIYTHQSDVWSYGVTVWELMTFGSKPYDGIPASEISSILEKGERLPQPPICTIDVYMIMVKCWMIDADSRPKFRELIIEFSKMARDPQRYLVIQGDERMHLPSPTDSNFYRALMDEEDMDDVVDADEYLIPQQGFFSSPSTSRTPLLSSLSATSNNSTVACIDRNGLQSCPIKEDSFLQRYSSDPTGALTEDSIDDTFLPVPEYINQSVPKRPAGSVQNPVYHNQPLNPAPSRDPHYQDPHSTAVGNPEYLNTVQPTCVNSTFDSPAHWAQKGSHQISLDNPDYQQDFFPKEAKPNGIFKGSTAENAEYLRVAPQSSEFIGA
Put plainly: EGFR kinase assay kit (Kinase-Glo MAX). Type of data set: biochemical. To be noted: EGFR-TK kinase kit; read-out: EGFR Inhibition IC50 (converted). The procedure: The EGFR Kinase Assay Kit (Sigma Aldrich, St. Louis, […], USA) is designed to measure EGFR Kinase activity for screening and profiling applications using Kinase-Glo® MAX as a detection reagent. The EGFR Kinase Assay Kit (Sigma Aldrich, St. Louis, […], USA) comes in a convenient 96-well format, with enough purified recombinant EGFR enzyme, EGFR substrate, ATP, and kinase assay buffer for 100 enzyme reactions. The master mixture (25 μL per well) was prepared out of Kinase assay buffer (6 μL), ATP (500 μM, 1 μL), PTK substrate (50×, 1 μL) and water (17 μL) and added to each well. Inhibitor solution was made by dissolving 4b in a liquid labelled” inhibitor buffer”. An inhibitor solution (5 μL) was then added to each well, labelled as “Test Inhibitor”. For “Positive Control” and “Blank”, add 5 μL inhibitor buffer). EGFR was thawed on ice. Its tube was spun briefly to recover the full content of the tube. The enzyme was diluted with 1× Kinase assay buffer enzyme to 1 ng/μL. The reaction was initiated by adding 20 μL of diluted EGFR enzyme to the wells designated “Positive Control” and “Test Inhibitor Control”. The plate was incubated at 30 °C for 40 min. After the 40-min reaction, the Kinase-Glo Max (50 μL) reagent was added to each well. The plate was covered with aluminum foil, incubated at room temperature for 15 min and the luminescence was measured using the microplate reader.
(In general: Kinase-Glo reads ATP consumption through a luciferase reaction.)

Data set [4] deals with CK1. To be noted: cited from earlier work.

For the compound `COc1cc(OC)c(/C=C2/C(=O)Nc3ccc(Cl)cc32)c(OC)c1` [Compound 4c, (E)-5-chloro-3-(2,4,6-trimethoxybenzylidene)indolin-2-one], the melting point fell in the range of 244 to 247 °C. In addition, in the data set with MCF-7, the inhibition at 1 µM was 17.9% and the inhibition at 10 µM was 65.1%. In addition, the inhibition at 1 µM in the data set with PC-3 (1 μM) is 28.9%. Besides, the inhibition at 10 µM in the data set on PC-3 turned out to be 62.2%. In the data set with COLO-205 [1], the “Growth Inhibition (%) COLO-205 10 μM Average” value is 58.44%, the inhibition at 1 µM came to 2.67% and the inhibition at 10 µM was 58%.
`COc1cc(OC)c(/C=C2/C(=O)Nc3ccc(F)cc32)c(OC)c1` [Compound 4d, (E)-5-fluoro-3-(2,4,6-trimethoxybenzylidene)indolin-2-one] registered a melting point of 212 to 215 °C. In the data set on MCF-7, the inhibition at 1 µM was determined as 10% and the inhibition at 10 µM was determined as 66.1%. In addition, the IC50 in the data set with COLO-205 [2] amounted to 1 µM. Also, the inhibition at 1 µM with PC-3 (1 μM) was 23.8%. Moreover, the inhibition at 10 µM in the data set with PC-3 came to 58%. In the data set on COLO-205 [1], the “Growth Inhibition (%) COLO-205 10 μM Average” value amounted to 64.01%, the inhibition at 1 µM worked out at 9.69% and the inhibition at 10 µM came out at 64%.
In the case of `COc1cc(OC)c(/C=C2/C(=O)Nc3ccc(OC)cc32)c(OC)c1` [Compound 4e, (E)-5-methoxy-3-(2,4,6-trimethoxybenzylidene)indolin-2-one], the melting point lay within 221 to 223 °C. In addition, in the data set with MCF-7, the inhibition at 1 µM was 34.5% and the inhibition at 10 µM is 68.9%. The midpoint of inhibition in the data set with COLO-205 [2], the IC50, lay at 0.3 µM. Also, the “Growth Inhibition (%) PC-3 1 μM Average” value with PC-3 (1 μM, 72 h) amounted to 42.36%. For the same compound, the inhibition at 1 µM in the data set with PC-3 (1 μM) turned out to be 43%. Further, in the data set with PC-3, the inhibition at 10 µM worked out at 63.3%. Moreover, the “Casein Kinase I Inhibition IC50” value on CK1 [3] was found to be 13.08 mg/L. Moreover, the “fold less potent on CK1 than compound 4b” value in the data set with CK1 [3] (ratio of CK1 IC50 vs 4b) is “about 6.8 fold”. For the same compound, in the data set on COLO-205 [1], the inhibition at 1 µM turned out to be 8.05% and the inhibition at 10 µM was determined as 31.9%. Besides, at EGFR, the IC50 is 1.17 µM.
Regarding `COc1cc(/C=C2/C(=O)N(Cc3ccc(Cl)cc3)c3cc(Cl)ccc32)cc(OC)c1OC` [Compound 6e, (E)-6-chloro-1-(4-chlorobenzyl)-3-(3,4,5-trimethoxybenzylidene) indolin-2-one], the inhibition at 1 µM worked out at 3.69% in the data set with MCF-7, 3.22% in the data set on PC-3 (1 μM) and 6.49% in the data set on COLO-205 [1]. For the same compound, the results for the inhibition at 10 µM in the data set with MCF-7, in the data set on PC-3 and with COLO-205 [1] were 6%, 5.65% and 72.6%, respectively. The compound further had an IC50 in the data set on COLO-205 [2] of 15.3 µM.
For the compound `COc1cc(/C=C2/C(=O)N(Cc3ccc(F)cc3)c3cc(Cl)ccc32)cc(OC)c1OC` [Compound 6f, (E)-6-chloro-1-(4-fluorobenzyl)-3-(3,4,5-trimethoxybenzylidene) indolin-2-one], the inhibition at 1 µM in the data set with MCF-7 is 3.56%; in the data set with PC-3 (1 μM), 0.4%; in the data set with COLO-205 [1], 3.67%. Besides, the figures for the inhibition at 10 µM in the data set on MCF-7, in the data set on PC-3 and in the data set with COLO-205 [1] were 29.9%, 23.4% and 63.8%, respectively. Besides, half-maximal inhibition with COLO-205 [2] (IC50) was put at 10.6 µM.
The compound `COc1cc(/C=C2/C(=O)N(CC(=O)OC(C)(C)C)c3cc(Cl)ccc32)cc(OC)c1OC` [Compound 9a, t-Butyl (E)-2-(6-chloro-2-oxo-3-(3,4,5-trimethoxybenzylidene)indolin-1-yl)acetate] returned a melting point of 82 to 85 °C. Moreover, in the data set on MCF-7, the inhibition at 1 µM came to 2.11% and the inhibition at 10 µM came to 7.11%. Also, the inhibition at 1 µM in the data set on PC-3 (1 μM) was found to be 1.19%. In addition, in the data set on PC-3, the inhibition at 10 µM was found to be 5.56%. Also, in the data set with COLO-205 [1], the inhibition at 1 µM came to 3.05% and the inhibition at 10 µM stood at 13%.
The compound `CCOC(=O)CN1C(=O)/C(=C/c2cc(OC)c(OC)c(OC)c2)c2ccc(Cl)cc21` [Compound 9b, Ethyl (E)-2-(6-chloro-2-oxo-3-(3,4,5-trimethoxybenzylidene)indolin-1-yl)acetate] registered a melting point of 60 to 62 °C. Besides, in the data set with MCF-7, the inhibition at 1 µM came to 2.3% and the inhibition at 10 µM stood at 6.82%. Also, the inhibition at 1 µM with PC-3 (1 μM) was found to be 1.66%. Besides, the inhibition at 10 µM with PC-3 turned out to be 13.2%. In addition, in the data set on COLO-205 [1], the inhibition at 1 µM amounted to 35.1% and the inhibition at 10 µM was determined as 40.9%.
On to `Nc1ccc2c(c1)/C(=C1/Nc3ccccc3/C1=N\O)C(=O)N2` [X], for which the “inhibitory activity against CK1” value in the data set with CK1 [4] was 0.13 µM.

A word on the inhibition: it is how much of the control response was suppressed. What is called melting point is the temperature, or range, at which the solid turns liquid. As usually defined, the IC50 is the concentration needed to halve the response being measured.
